Source: patent US8580794B2 (AbbVie Inc., priority 2009, dated 2013)

molecular target: GST-Bc1-2 (Homo sapiens, UniProt P10415); test: Time Resolved-Fluorescence Resonance Energy Transfer (TR-FRET) Bcl-2 binding assay with F-Bak peptide probe; conditions: GST-Bcl-2 1 nM, F-Bak probe 100 nM, Tb-anti-GST 1 nM; '<' = below limit of detection; read-out: TR-FRET Bcl-2 Binding Ki
Sequence (P10415 whole entry): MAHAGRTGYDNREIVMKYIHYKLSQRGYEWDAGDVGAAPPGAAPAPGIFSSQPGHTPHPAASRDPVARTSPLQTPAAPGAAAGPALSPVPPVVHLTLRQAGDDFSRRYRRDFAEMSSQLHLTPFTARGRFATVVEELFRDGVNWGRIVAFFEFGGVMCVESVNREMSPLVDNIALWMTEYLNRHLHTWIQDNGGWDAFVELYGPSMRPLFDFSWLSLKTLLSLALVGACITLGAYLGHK
Experimental: The samples are then mixed on a shaker for 1 minute and incubated for an additional 3 hours at room temperature. For each assay, the probe/antibody and protein/probe/antibody were included on each assay plate as negative and positive controls, respectively.
The samples were then mixed on a shaker for 1 minute and incubated for an additional 3 hours at room temperature. For each assay, the probe/antibody and protein/probe/antibody were included on each assay plate as negative and positive controls, respectively.

SMILES | Ki
CC1(C)CCC(CN2CCN(c3ccc(C(=O)NS(=O)(=O)c4ccc(N[C@@H]5CC[C@H](N6CCOCC6)C5)c([N+](=O)[O-])c4)c(Oc4cnc5[nH]ccc5c4)c3)CC2)=C(c2ccc(Cl)cc2)C1 [Example 112, 4-(4-{[2-(4-chlorophenyl)-4,4-dimethylcyclohex-1-en-1-yl]methyl}piperazin-1-yl)-N-[(4-{[(1R,3S)-3-morpholin-4-ylcyclopentyl]amino}-3-nitrophenyl)sulfonyl]-2-(1H-pyrrolo[2,3-b]pyridin-5-yloxy)benzamide] | < 0.01 nM
CC1(C)CCC(CN2CCN(c3ccc(C(=O)NS(=O)(=O)c4ccc(N[C@H]5CC[C@@H](NC6CC6)CC5)c([N+](=O)[O-])c4)c(Oc4cnc5[nH]ccc5c4)c3)CC2)=C(c2ccc(Cl)cc2)C1 [Example 122, Cis-4-(4-{[2-(4-chlorophenyl)-4,4-dimethylcyclohex-1-en-1-yl]methyl}piperazin-1-yl)-N-[(4-{[4-(cyclopropylamino)cyclohexyl]amino}-3-nitrophenyl)sulfonyl]-2-(1H-pyrrolo[2,3-b]pyridin-5-yloxy)benzamide] | < 0.01 nM
CC1(C)CCC(CN2CCN(c3ccc(C(=O)NS(=O)(=O)c4ccc(OC[C@@H]5CN(C6COC6)C[C@H]5CF)c([N+](=O)[O-])c4)c(Oc4cnc5[nH]ccc5c4)c3)CC2)=C(c2ccc(Cl)cc2)C1 (relative stereo) [Example 137, 4-(4-{[2-(4-chlorophenyl)-4,4-dimethylcyclohex-1-en-1-yl]methyl}piperazin-1-yl)-N-[(4-{[trans-4-(fluoromethyl)-1-oxetan-3-ylpyrrolidin-3-yl]methoxy}-3-nitrophenyl)sulfonyl]-2-(1H-pyrrolo[2,3-b]pyridin-5-yloxy)benzamide] | < 0.01 nM
CC1(C)CCC(CN2CCN(c3ccc(C(=O)NS(=O)(=O)c4ccc(OCC5(C)CCOCC5)c([N+](=O)[O-])c4)c(Oc4cnc5[nH]ccc5c4)c3)CC2)=C(c2ccc(Cl)cc2)C1 [Example 221, 4-(4-{[2-(4-chlorophenyl)-4,4-dimethylcyclohex-1-en-1-yl]methyl}piperazin-1-yl)-N-({4-[(4-methyltetrahydro-2H-pyran-4-yl)methoxy]-3-nitrophenyl}sulfonyl)-2-(1H-pyrrolo[2,3-b]pyridin-5-yloxy)benzamide] | 0.049 nM
CC1(C)CCC(CN2CCN(c3ccc(C(=O)NS(=O)(=O)c4ccc(NC5CCN(C(CF)CF)CC5)c([N+](=O)[O-])c4)c(Oc4cnc5[nH]ccc5c4)c3)CC2)=C(c2ccc(Cl)cc2)C1 [Example 95, 4-(4-{[2-(4-chlorophenyl)-4,4-dimethylcyclohex-1-en-1-yl]methyl}piperazin-1-yl)-N-{[4-({1-[2-fluoro-1-(fluoromethyl)ethyl]piperidin-4-yl}amino)-3-nitrophenyl]sulfonyl}-2-(1H-pyrrolo[2,3-b]pyridin-5-yloxy)benzamide] | 0.014 nM
COC1(C)CCC(c2ccc(Cl)cc2)=C(CN2CCN(c3ccc(C(=O)NS(=O)(=O)c4ccc(NCC5CCOCC5)c([N+](=O)[O-])c4)c(Oc4cnc5[nH]ccc5c4)c3)CC2)C1 (stereo not shown) [Example 378, 4-(4-{[2-(4-chlorophenyl)-5-methoxy-5-methylcyclohex-1-en-1-yl]methyl}piperazin-1-yl)-N-({3-nitro-4-[(tetrahydro-2H-pyran-4-ylmethyl)amino]phenyl}sulfonyl)-2-(1H-pyrrolo[2,3-b]pyridin-5-yloxy)benzamide] | < 0.001 nM
CC1(C)CCC(CN2CCN(c3ccc(C(=O)NS(=O)(=O)c4ccc(NC5CCN(C6CCOC6)CC5)c([N+](=O)[O-])c4)c(Oc4cnc5[nH]ccc5c4)c3)CC2)=C(c2ccc(Cl)cc2)C1 (stereo not shown) [Example 143, 4-(4-{[2-(4-chlorophenyl)-4,4-dimethylcyclohex-1-en-1-yl]methyl}piperazin-1-yl)-N-({3-nitro-4-[(1-tetrahydrofuran-3-ylpiperidin-4-yl)amino]phenyl}sulfonyl)-2-(1H-pyrrolo[2,3-b]pyridin-5-yloxy)benzamide] | < 0.01 nM
CC1(C)CCC(CN2CCN(c3ccc(C(=O)NS(=O)(=O)c4cnc5c(c4)nnn5CC4CCOCC4)c(Oc4cnc5[nH]ccc5c4)c3)CC2)=C(c2ccc(Cl)cc2)C1 [Example 370, 4-(4-{[2-(4-chlorophenyl)-4,4-dimethylcyclohex-1-en-1-yl]methyl}piperazin-1-yl)-2-(1H-pyrrolo[2,3-b]pyridin-5-yloxy)-N-{[3-(tetrahydro-2H-pyran-4-ylmethyl)-3H-[1,2,3]triazolo[4,5-b]pyridin-6-yl]sulfonyl}benzamide] | 0.285 nM
CC1(C)CCC(CN2CCN(c3ccc(C(=O)NS(=O)(=O)c4ccc(OCC5CCN(C(CF)CF)CC5)c([N+](=O)[O-])c4)c(Oc4cnc5[nH]ccc5c4)c3)CC2)=C(c2ccc(Cl)cc2)C1 [Example 129, 4-(4-{[2-(4-chlorophenyl)-4,4-dimethylcyclohex-1-en-1-yl]methyl}piperazin-1-yl)-N-{[4-({1-[2-fluoro-1-(fluoromethyl)ethyl]piperidin-4-yl}methoxy)-3-nitrophenyl]sulfonyl}-2-(1H-pyrrolo[2,3-b]pyridin-5-yloxy)benzamide] | 0.002 nM
COCCNc1ccc(S(=O)(=O)NC(=O)c2ccc(N3CCN(CC4=C(c5ccc(Cl)cc5)CC(C)(C)CC4)CC3)cc2Oc2ccc3[nH]ccc3c2)cc1S(=O)(=O)C(F)(F)F [Example 93, 4-(4-{[2-(4-chlorophenyl)-4,4-dimethylcyclohex-1-en-1-yl]methyl}piperazin-1-yl)-2-(1H-indol-5-yloxy)-N-({4-[(2-methoxyethyl)amino]-3-[(trifluoromethyl)sulfonyl]phenyl}sulfonyl)benzamide] | 3.46 nM
CC(C)(CO)CNc1ccc(S(=O)(=O)NC(=O)c2ccc(N3CCN(CC4=C(c5ccc(Cl)cc5)CC(C)(C)CC4)CC3)cc2Oc2cnc3[nH]ccc3c2)cc1[N+](=O)[O-] [Example 146, 4-(4-{[2-(4-chlorophenyl)-4,4-dimethylcyclohex-1-en-1-yl]methyl}piperazin-1-yl)-N-({4-[(3-hydroxy-2,2-dimethylpropyl)amino]-3-nitrophenyl}sulfonyl)-2-(1H-pyrrolo[2,3-b]pyridin-5-yloxy)benzamide] | < 0.01 nM
CN(C)CC(=O)N1CCC(F)(COc2ncc(S(=O)(=O)NC(=O)c3ccc(N4CCN(CC5=C(c6ccc(Cl)cc6)CC(C)(C)CC5)CC4)cc3Oc3cnc4[nH]ccc4c3)cc2Cl)CC1 [Example 270, N-[(5-chloro-6-{[1-(N,N-dimethylglycyl)-4-fluoropiperidin-4-yl]methoxy}pyridin-3-yl)sulfonyl]-4-(4-{[2-(4-chlorophenyl)-4,4-dimethylcyclohex-1-en-1-yl]methyl}piperazin-1-yl)-2-(1H-pyrrolo[2,3-b]pyridin-5-yloxy)benzamide] | < 0.01 nM
CN1CCC(F)(COc2ccc(S(=O)(=O)NC(=O)c3ccc(N4CCN(CC5=C(c6ccc(Cl)cc6)CC(C)(C)CC5)CC4)cc3Oc3cnc4[nH]ccc4c3)cc2Cl)CC1 [Example 283, N-({3-chloro-4-[(4-fluoro-1-methylpiperidin-4-yl)methoxy]phenyl}sulfonyl)-4-(4-{[2-(4-chlorophenyl)-4,4-dimethylcyclohex-1-en-1-yl]methyl}piperazin-1-yl)-2-(1H-pyrrolo[2,3-b]pyridin-5-yloxy)benzamide] | < 0.01 nM
CC1(C)CCC(CN2CCN(c3ccc(C(=O)NS(=O)(=O)c4ccc(N[C@@H]5CCN(CC(F)F)C5)c([N+](=O)[O-])c4)c(Oc4cnc5[nH]ccc5c4)c3)CC2)=C(c2ccc(Cl)cc2)C1 [Example 180, 4-(4-{[2-(4-chlorophenyl)-4,4-dimethylcyclohex-1-en-1-yl]methyl}piperazin-1-yl)-N-[(4-{[(3R)-1-(2,2-difluoroethyl)pyrrolidin-3-yl]amino}-3-nitrophenyl)sulfonyl]-2-(1H-pyrrolo[2,3-b]pyridin-5-yloxy)benzamide] | < 0.01 nM
CC1(C)CCC(CN2CCN(c3ccc(C(=O)NS(=O)(=O)c4cnc(OCC(C)(CO)CO)c(Cl)c4)c(Oc4cnc5[nH]ccc5c4)c3)CC2)=C(c2ccc(Cl)cc2)C1 [Example 250, N-({5-chloro-6-[3-hydroxy-2-(hydroxymethyl)-2-methylpropoxy]pyridin-3-yl}sulfonyl)-4-(4-{[2-(4-chlorophenyl)-4,4-dimethylcyclohex-1-en-1-yl]methyl}piperazin-1-yl)-2-(1H-pyrrolo[2,3-b]pyridin-5-yloxy)benzamide] | 0.412 nM
CC1(C)CCC(CN2CCN(c3ccc(C(=O)NS(=O)(=O)c4ccc(NC5CCN(C6COC6)CC5)c([N+](=O)[O-])c4)c(Oc4cnc5[nH]ccc5c4)c3)CC2)=C(c2ccc(Cl)cc2)C1 [Example 139, 4-(4-{[2-(4-chlorophenyl)-4,4-dimethylcyclohex-1-en-1-yl]methyl}piperazin-1-yl)-N-({3-nitro-4-[(1-oxetan-3-ylpiperidin-4-yl)amino]phenyl}sulfonyl)-2-(1H-pyrrolo[2,3-b]pyridin-5-yloxy)benzamide] | < 0.01 nM
CC1(C)CCC(CN2CCN(c3ccc(C(=O)NS(=O)(=O)c4ccc(NN5CCN(C6COC6)CC5)c([N+](=O)[O-])c4)c(Oc4cnc5[nH]ccc5c4)c3)CC2)=C(c2ccc(Cl)cc2)C1 [Example 236, 4-(4-{[2-(4-chlorophenyl)-4,4-dimethylcyclohex-1-en-1-yl]methyl}piperazin-1-yl)-N-[(3-nitro-4-{[4-(oxetan-3-yl)piperazin-1-yl]amino}phenyl)sulfonyl]-2-(1H-pyrrolo[2,3-b]pyridin-5-yloxy)benzamide] | 0.033 nM
CC1(C)CCC(CN2CCN(c3ccc(C(=O)NS(=O)(=O)c4ccc(NC5CCC(N(CCC#N)C6CC6)CC5)c([N+](=O)[O-])c4)c(Oc4cnc5[nH]ccc5c4)c3)CC2)=C(c2ccc(Cl)cc2)C1 (stereo not shown) [Example 340, 4-(4-{[2-(4-chlorophenyl)-4,4-dimethylcyclohex-1-en-1-yl]methyl}piperazin-1-yl)-N-{[4-({4-[(2-cyanoethyl)(cyclopropyl)amino]cyclohexyl}amino)-3-nitrophenyl]sulfonyl}-2-(1H-pyrrolo[2,3-b]pyridin-5-yloxy)benzamide] | < 0.01 nM

same assay, conditions: read-out: Bcl-2 FRET ki

SMILES | Ki
COCCNc1ccc(S(=O)(=O)NC(=O)c2ccc(N3CCN(CC4=C(c5ccc(Cl)cc5)CC(C)(C)CC4)CC3)cc2Oc2ccc3[nH]ccc3c2)cc1S(=O)(=O)C(F)(F)F [Example 93, 4-(4-{[2-(4-chlorophenyl)-4,4-dimethylcyclohex-1-en-1-yl]methyl}piperazin-1-yl)-2-(1H-indol-5-yloxy)-N-({4-[(2-methoxyethyl)amino]-3-[(trifluoromethyl)sulfonyl]phenyl}sulfonyl)benzamide] | 35 nM
